In data set [1] the test system is IL-1. Briefly: IL-1 (IL-1β) level of LPS-cultured PBMCs (BD CBA Human Inflammation Kit) from healthy men after 6 weeks of αT supplementation. In kind it is in vivo. The conditions noted are these: for PMBC cytokine levels IL-1 mean: 6-weeks. An excerpt: (§1) Healthy middle-aged male volunteers (mean age 52.7±10 years; median years) were given dietary supplements of either […] (moderate dose), or […] (high dose) RRR-α tocopherol per day for six weeks. Subject numbers in each group were 57 and 102 respectively. All research participants gave written informed consent to take part. The study protocol was approved by the Southampton University Hospitals Trust Clinical Ethics Committee authorized the research protocol. Study participants continued with their normal diets while receiving the supplements. Subjects continued with their normal daily activities while on the study but visited the Wellcome Trust Clinical Research Facility at Southampton University Hospital Trust, after an overnight fast, at the beginning and end of the supplementation period. At the visit weight, height, and waist and hip circumference were measured, and blood samples taken for the measurement of cytokines.
(§2) Alpha-tocopherol in plasma was determined using fluorimetry according to methods described elsewhere (11). The limit of detection for αT was 7.2 pmol/L. Peripheral blood mononuclear cells (PBMCs) were prepared from heparinized whole blood samples using Leucosep sterile centrifuge tubes (Greiner Bio-one, Germany) and Histopaque gradient solution (Sigma-Aldrich Inc, MO, USA) and cultured in the presence of Lipopolysaccharide (LPS) (Sigma-Aldrich Inc, MO, USA) for 24h after which time the supernatants were removed and stored. Interleukin-6 (IL-6), tumor necrosis factor (TNF) and interleukin-1β (IL-1β) protein levels were quantitatively measured by the BD CBA Human Inflammation Kit (BD Bioscience, San Jose, Calif., USA). The operations were performed according to the manufacturer's instructions. The intensity of the fluorescence signal was acquired on a fluorescence activated cell sorter (FACS) flow cytometer (BD Becton-Dickinson), and analyzed using CBA software. The concentration range for detection using this assay is 20-5000 pg/ml for each of the proteins.
(§3) A linear regression was carried out where the outcome variable was Log(DeltaCk+minDeltaCk) Where Ck stands for IL-1, IL-6 or TNF-alpha. And DeltaCk=Followup-Baseline serum cytokine levels, and minDelta the most negative DeltaCk (<0) observed in the population baseline value, alpha tocopherol dose group, smoking status (age+BMI) were included as covariates.

The subject of data set [2] is TNFα. The data set is described as follows: TNFα level of LPS-cultured PBMCs (BD CBA Human Inflammation Kit) from healthy men after 6 weeks of αT supplementation. Format: in vivo. Particulars: for PMBC cytokine levels TNFα mean: 6-weeks.
Text: as §1, §2, §3

Data set [3] relates to IL-6. The data set is described as follows: IL-6 level of LPS-cultured PBMCs (BD CBA Human Inflammation Kit) from healthy men after 6 weeks of αT supplementation. Format: in vivo. The conditions noted are these: for PMBC cytokine levels IL-6 mean: 6-weeks.
Text: as §1, §2, §3

A short description of data set [4]: Fasting plasma alpha-tocopherol by fluorimetry in healthy men supplemented with αT for six weeks. In kind it is in vivo, human. The conditions noted are these: for fasting plasma αT mean: 6-weeks.
Text: as §1, §2

The conditions of data set [5]: subjects who took vitamin E supplements; adjusted for age, smoking status, intake of carotene and vitamin C; cited from earlier work.

As for `Cc1c(C)c2c(c(C)c1O)CC[C@@](C)(CCC[C@H](C)CCC[C@H](C)CCCC(C)C)O2` [αT, RRR-α tocopherol], the “PMBC cytokine levels IL-1 mean” value in data set [1] (75 IU/d) is given as 7.38 ng/L; in data set [1] (600 IU/d), 6.93 ng/L. In addition, the “change in IL1 levels by genotype” value in data set [1] (GG carriers at IL10-1082, 6 weeks) is “lower increase”; in data set [1] (common genotypes at IL10-592 (CC) and IL10-819, 6 weeks) it was “lower increase”. Besides, the “change in IL-1 levels by genotype” value in data set [1] (GG genotype at GSTP1 313, 6 weeks, not significant after FDR correction) is “decrease”. In addition, in data set [1] (both treatment groups, 6 weeks), the “change in serum levels of IL-1” value is given as “increase”. Also, the results for the “PMBC cytokine levels TNFα mean” value in data set [2] (75 IU/d) and in data set [2] (600 IU/d) were 1.48 ng/L and 1.31 ng/L, respectively. In addition, the “change in TNFα by genotype” value in data set [2] (GA genotype at TNF-238, 6 weeks, p<0.016 after correcting for multiple tests) is reported as “decrease”. For the same molecule, in data set [2] (both treatment groups, 6 weeks), the “change in serum levels of TNFα” value was “increase”. The “change in serum levels of TNFα by genotype” value in data set [2] (genotypes AG and AA for IL10-1082 SNP and GG for TNF-238 SNP, 6 weeks) is reported as “increase”. Besides, the “increase in TNFα after supplementation” value in data set [2] (low-dose group (75 IU/d), 6 weeks, p<0.011 after adjusting for age, baseline levels, smoking status and BMI) was determined as 40.5%. Moreover, the entries for the “PMBC cytokine levels IL-6 mean” value in data set [3] (75 IU/d) and in data set [3] (600 IU/d) were 18.71 ng/L and 16.73 ng/L, respectively. In addition, the “change in IL-6 serum levels by genotype” value in data set [3] (GSTP1 313 AG and GG carriers (so in the source), 6 weeks) is given as “increase”. In addition, the “change in IL-6 levels by genotype” value was “lower increase” in data set [3] (SOD-28 TT versus CT and CC variants, 6 weeks, not significant after adjusting for multiple tests); “decreased levels” in data set [3] (variant homozygotes GSTP1 313 (GG), 6 weeks, p<0.019). Further, in data set [3] (both treatment groups, 6 weeks), the “change in serum levels of IL-6” value is “increase”. The “fasting plasma αT mean” value in data set [4] (75 IU/d, n = 57 healthy males) worked out at 22.6 µmol/L; in data set [4] (600 IU/d, n = 102 healthy males), 31.3 µmol/L. For the same molecule, in data set [4] (both dose groups (75 and 600 IU/d), 6 weeks), the “change in plasma fasting levels of alpha-tocopherol” value is given as “increase”.

Consider vitamin E, for which the “reduction of major coronary heart disease” value in data set [5] was 30%.

These data come from patent US20210310069A1, “METHODS FOR DETERMINING GENE-ALPHA TOCOPHEROL INTERACTIONS” (BodySync. Inc., priority 2009, published 2021).
